The values below come from patent US20240101570A1 (AMGEN INC., priority 2020, published 2024).

One test deals with HCT116 MTAP null cells. Briefly: HCT116 MTAP null cell proliferation / viability (CellTiter-Glo, 6 days). The test is classed as cell-based. Conditions: HCT116-MTAP null, 144 h, HCT116 MTAP null cells, 6 days, CellTiter-Glo; read-out: HCT-116 MTAP null IC50. An outline of the steps:
(§1)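 IC50 values derive from sigmoidal dose-response fits, some with Hill slope fixed at −1 and top constrained to 100%, others from 4-parameter logistic models. They reflect CellTiter-Glo viability after 6 days of compound exposure at up to 10 or 50 μM.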
For orientation: ATP-based viability assays read luminescence as a measure of living cells.

The next test relates to HCT116 WT cells. Nature of the test: HCT116 WT cell proliferation / viability (CellTiter-Glo, 6 days). The test is classed as cell-based. Conditions: Homo sapiens, HCT-116, 144 h, HCT116 WT cells, 6 days, CellTiter-Glo; read-out: HCT-116 WT IC50. The method, boiled down: as §1

As usually defined, the IC50 is the point on the concentration scale where inhibition reaches its midpoint.

For `CN(Cc1ccc(C(F)F)cn1)C(=O)c1ccc2nc(N)c3cnn(C)c3c2c1` [Example 524, 4-amino-N-((5-(difluoromethyl)-2-pyridinyl)methyl)-N,1-dimethyl-1H-pyrazolo[4,3-c]quinoline-8-carboxamide], the IC50 in the test on HCT116 MTAP null cells amounted to 183 nM; in the test with HCT116 WT cells, 16400 nM.

Regarding `CN(Cc1ccc(C(F)F)cn1)C(=O)c1cc2c(cc1F)nc(N)c1cnn(C)c12` [Example 525, 4-amino-N-((5-(difluoromethyl)-2-pyridinyl)methyl)-7-fluoro-N,1-dimethyl-1H-pyrazolo[4,3-c]quinoline-8-carboxamide], the IC50 with HCT116 MTAP null cells worked out at 32 nM; in the test with HCT116 WT cells, 2120 nM.

With `CN(Cc1ccc(C(F)(F)F)c(F)c1)C(=O)c1ccc2nc(N)c3cnn(C)c3c2c1` [Example 526, 4-amino-N-(3-fluoro-4-(trifluoromethyl)benzyl)-N,1-dimethyl-1H-pyrazolo[4,3-c]quinoline-8-carboxamide], the IC50 is 169 nM with HCT116 MTAP null cells and 6950 nM in the test with HCT116 WT cells.

In the case of `CN(Cc1ncc(C(F)(F)F)cc1F)C(=O)c1ccc2nc(N)c3cnn(C)c3c2c1` [Example 527, 4-amino-N-((3-fluoro-5-(trifluoromethyl)-2-pyridinyl)methyl)-N,1-dimethyl-1H-pyrazolo[4,3-c]quinoline-8-carboxamide], the IC50 with HCT116 MTAP null cells stood at 183 nM; with HCT116 WT cells it was 13500 nM.

As to `CN(Cc1ncc(C(F)(F)F)cc1F)C(=O)c1cc2c3c(c(N)nc2cc1F)COC3` [Example 528, 4-amino-7-fluoro-N-((3-fluoro-5-(trifluoromethyl)-2-pyridinyl)methyl)-N-methyl-1,3-dihydrofuro[3,4-c]quinoline-8-carboxamide], the IC50 came out at 111 nM in the test with HCT116 MTAP null cells and 5420 nM in the test on HCT116 WT cells.

In the case of `CN(Cc1ccc(-c2cnn(C(F)(F)F)c2)nn1)C(=O)c1ccc2nc(N)c3cnn(C)c3c2c1` [Example 529, 4-amino-N,1-dimethyl-N-((6-(1-(trifluoromethyl)-1H-pyrazol-4-yl)-3-pyridazinyl)methyl)-1H-pyrazolo[4,3-c]quinoline-8-carboxamide], the IC50 in the test with HCT116 MTAP null cells came out at 887 nM; with HCT116 WT cells, 28500 nM.

Turning to `CN(Cc1ccc(-c2ccc(C(F)(F)F)cc2)nn1)C(=O)c1ccc2nc(N)c3cnn(C)c3c2c1` [Example 530, 4-amino-N,1-dimethyl-N-((6-(4-(trifluoromethyl)phenyl)-3-pyridazinyl)methyl)-1H-pyrazolo[4,3-c]quinoline-8-carboxamide], the IC50 came to 165 nM with HCT116 MTAP null cells and 6560 nM with HCT116 WT cells.

As to `C[C@H](c1ccc(-c2ccc(C(F)(F)F)cc2)cc1)N(C)C(=O)c1ccc2nc(N)c3cnn(C)c3c2c1` [Example 531, 4-amino-N,1-dimethyl-N-((1R)-1-(4′-(trifluoromethyl)[biphenyl]-4-yl)ethyl)-1H-pyrazolo[4,3-c]quinoline-8-carboxamide], the IC50 with HCT116 MTAP null cells worked out at 188 nM; with HCT116 WT cells it was 2340 nM.

For the molecule `C[C@H](c1ccc(-c2ccc(C(F)(F)F)cc2)nn1)N(C)C(=O)c1ccc2nc(N)c3cnn(C)c3c2c1` [Example 532, 4-amino-N,1-dimethyl-N-((1R)-1-(6-(4-(trifluoromethyl)phenyl)-3-pyridazinyl)ethyl)-1H-pyrazolo[4,3-c]quinoline-8-carboxamide], the IC50 in the test on HCT116 MTAP null cells is 37 nM; in the test with HCT116 WT cells, 2030 nM.

Turning to `C[C@H](c1ccc(-c2ccc(S(F)(F)(F)(F)F)cc2)cc1)N(C)C(=O)c1ccc2nc(N)c3cnn(C)c3c2c1` [Example 533, 4-amino-N,1-dimethyl-N-((1R)-1-(4′-(pentafluoro-lambda~6~- sulfanyl)[biphenyl]-4-yl)ethyl)-1H-pyrazolo[4,3-c]quinoline-8-carboxamide], the half-inhibitory concentration (IC50) was found to be 459 nM in the test with HCT116 MTAP null cells and 3190 nM in the test on HCT116 WT cells.

For the molecule `CC(C)N(Cc1ccc(C(F)(F)F)cn1)C(=O)c1cc2c3c(c(N)nc2cn1)CCO3` [Example 534, 4-amino-N-(2-propanyl)-N-((5-(trifluoromethyl)-2-pyridinyl)methyl)-2,3-dihydrofuro[3,2-c][1,7]naphthyridine-8-carboxamide], the results for the IC50 with HCT116 MTAP null cells and in the test on HCT116 WT cells were 581 nM and 5580 nM, respectively.

With `CN(CC(F)(F)c1ccc(Cl)cn1)C(=O)c1ccc2nc(N)c3cnn(C)c3c2c1` [Example 535, 4-amino-N-(2-(5-chloro-2-pyridinyl)-2,2-difluoroethyl)-N,1-dimethyl-1H-pyrazolo[4,3-c]quinoline-8-carboxamide], the IC50 is 860 nM in the test with HCT116 MTAP null cells and 6990 nM with HCT116 WT cells.

Regarding `CC(C)N(Cc1ccc(C(F)(F)F)cn1)C(=O)c1cc2c3c(c(N)nc2cc1F)CCO3` [Example 536, 4-amino-7-fluoro-N-(2-propanyl)-N-((5-(trifluoromethyl)-2-pyridinyl)methyl)-2,3-dihydrofuro[3,2-c]quinoline-8-carboxamide], the IC50 with HCT116 MTAP null cells was 50 nM; in the test with HCT116 WT cells it was 325 nM.

With `CCN(Cc1ccc(C(F)(F)F)cn1)C(=O)c1cc2c3c(c(N)nc2nc1Cl)COC3` [Example 537, 4-amino-7-chloro-N-ethyl-N-((5-(trifluoromethyl)-2-pyridinyl)methyl)-1,3-dihydrofuro[3,4-c][1,8]naphthyridine-8-carboxamide], the IC50 was 222 nM with HCT116 MTAP null cells and 5390 nM in the test with HCT116 WT cells.

As to `Cc1nn(C)c2c1c(N)nc1cc(F)c(C(=O)N(Cc3ccc(C(F)(F)F)cn3)C(C)C)cc12` [Example 538, 4-amino-7-fluoro-1,3-dimethyl-N-(2-propanyl)-N-((5-(trifluoromethyl)-2-pyridinyl)methyl)-1H-pyrazolo[4,3-c]quinoline-8-carboxamide], the IC50 in the test with HCT116 MTAP null cells was determined as 40 nM; with HCT116 WT cells, 735 nM.

With `CCN(Cc1ccc(C2CC2)cn1)C(=O)c1ccc2nc(N)c3c(c2c1)COC3` [Example 539, 4-amino-N-((5-cyclopropyl-2-pyridinyl)methyl)-N-ethyl-1,3-dihydrofuro[3,4-c]quinoline-8-carboxamide], the IC50 with HCT116 MTAP null cells was determined as 106 nM; in the test on HCT116 WT cells, 2100 nM.

Regarding `CCN(Cc1ccc(C2CC2)cn1)C(=O)c1ccc2nc(N)c3cnn(C)c3c2c1` [Example 540, 4-amino-N-((5-cyclopropyl-2-pyridinyl)methyl)-N-ethyl-1-methyl-1H-pyrazolo[4,3-c]quinoline-8-carboxamide], the IC50 came out at 39 nM with HCT116 MTAP null cells and 1480 nM with HCT116 WT cells.

As for `CCN(Cc1ccc(C2CC2)cn1)C(=O)c1cc2c(cn1)nc(N)c1cnn(C)c12` [Example 541, 4-amino-N-((5-cyclopropyl-2-pyridinyl)methyl)-N-ethyl-1-methyl-1H-pyrazolo[4,3-c][1,7]naphthyridine-8-carboxamide], the IC50 with HCT116 MTAP null cells turned out to be 37 nM; with HCT116 WT cells, 548 nM.

Consider `CCN(Cc1ccc(C2CC2)cn1)C(=O)c1ccc2nc(N)c3c(c2c1)CO[C@@H]3C` [Example 542, (3R)-4-amino-N-((5-cyclopropyl-2-pyridinyl)methyl)-N-ethyl-3-methyl-1,3-dihydrofuro[3,4-c]quinoline-8-carboxamide], for which the half-maximal inhibitory concentration (IC50) amounted to 35 nM in the test with HCT116 MTAP null cells and 1540 nM in the test with HCT116 WT cells.

Regarding `CN(Cc1ccc(C(F)(F)F)cc1)C(=O)c1ccc2nc(N)c3cnn(C)c3c2c1` [Example 543, 4-amino-N,1-dimethyl-N-(4-(trifluoromethyl)benzyl)-1H-pyrazolo[4,3-c]quinoline-8-carboxamide], the IC50 came to 57 nM with HCT116 MTAP null cells and 2010 nM in the test with HCT116 WT cells.

With `CN(Cc1ccc(C(F)(F)F)cc1)C(=O)c1cc2c(cn1)nc(N)c1cnn(C)c12` [Example 544, 4-amino-N,1-dimethyl-N-(4-(trifluoromethyl)benzyl)-1H-pyrazolo[4,3-c][1,7]naphthyridine-8-carboxamide], the IC50 came to 56 nM in the test with HCT116 MTAP null cells and 2320 nM in the test on HCT116 WT cells.

Regarding `CCN(Cc1ccc(C2CC2)cn1)C(=O)c1cc2c(cc1F)nc(N)c1cnn(C)c12` [Example 545, 4-amino-N-((5-cyclopropyl-2-pyridinyl)methyl)-N-ethyl-7-fluoro-1-methyl-1H-pyrazolo[4,3-c]quinoline-8-carboxamide], the figures for the concentration for half-maximal inhibition (IC50) in the test on HCT116 MTAP null cells and in the test with HCT116 WT cells were 7 nM and 140 nM, respectively.

`CCN(Cc1ccc(C(F)(F)F)cn1)C(=O)c1ccc2nc(N)c3cnn(C)c3c2c1` [Example 546, 4-amino-N-ethyl-1-methyl-N-((5-(trifluoromethyl)-2-pyridinyl)methyl)-1H-pyrazolo[4,3-c]quinoline-8-carboxamide]: the IC50 with HCT116 MTAP null cells came out at 19 nM; in the test on HCT116 WT cells it was 976 nM.

For the molecule `CCN(Cc1ccc(C(F)(F)F)cn1)C(=O)c1ccc2nc(N)c3c(C)noc3c2c1` [Example 547, 4-amino-N-ethyl-3-methyl-N-((5-(trifluoromethyl)-2-pyridinyl)methyl)[1,2]oxazolo[4,5-c]quinoline-8-carboxamide], the IC50 in the test on HCT116 MTAP null cells turned out to be 668 nM; with HCT116 WT cells, 24500 nM.

In the case of `CCN(Cc1ccc(C(F)(F)F)nn1)C(=O)c1ccc2nc(N)c3cnn(C)c3c2c1` [Example 548, 4-amino-N-ethyl-1-methyl-N-((6-(trifluoromethyl)-3-pyridazinyl)methyl)-1H-pyrazolo[4,3-c]quinoline-8-carboxamide], the IC50 with HCT116 MTAP null cells was 78 nM; in the test on HCT116 WT cells it was 6870 nM.

For `CCN(Cc1ccc(C(F)(F)F)cn1)C(=O)c1cc2c(cn1)nc(N)c1cnn(C)c12` [Example 549, 4-amino-N-ethyl-1-methyl-N-((5-(trifluoromethyl)-2-pyridinyl)methyl)-1H-pyrazolo[4,3-c][1,7]naphthyridine-8-carboxamide], the IC50 with HCT116 MTAP null cells was found to be 20 nM; in the test on HCT116 WT cells it was 487 nM.

Regarding `CCN(Cc1ccc(C(F)(F)F)nn1)C(=O)c1cc2c(cn1)nc(N)c1cnn(C)c12` [Example 550, 4-amino-N-ethyl-1-methyl-N-((6-(trifluoromethyl)-3-pyridazinyl)methyl)-1H-pyrazolo [4,3-c][1,7]naphthyridine-8-carboxamide], the results for the 50% inhibitory concentration (IC50) in the test on HCT116 MTAP null cells and in the test on HCT116 WT cells were 66 nM and 1800 nM, respectively.
